Structures can show the parent of a compound that is named as a salt.

The text below walks through data of patent US20240409536A1, “COMPOUNDS AND METHODS FOR MODULATING SPLICING” (REMIX THERAPEUTICS INC., priority 2021, published 2024).

The assay deals with MYB mRNA. Kind of assay: Gene panel canonical junction qPCR assay, MYB CJ mRNA decrease. The assay is classed as cell-based, human. As to conditions: Homo sapiens, canonical junction qPCR, read-out: MYB IC50 (decrease in CJ mRNA levels). The method in brief: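 A673 or K562 cells treated with compound; canonical exon-exon junction mRNA quantified by cDNA synthesis and RT-qPCR with junction-spanning primer/probe, normalized to GAPDH, GUSB or PPIA and DMSO (2^(−ΔΔCt)). Percent response from set ΔCt assay windows fitted to 4-parameter logistic; IC50 for CJ decrease.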
Background: Real-time PCR tracks product formation cycle by cycle.
Turning to `CN[C@@H]1CCN(c2ccc(C(=O)Nc3cc(F)c4nc(C)cn4c3)c3nccnc23)C1` (single isomer, unassigned) [Compound 193, N-{8-fluoro-2-methylimidazo[1,2-a]pyridin-6-yl}-8-[3-(methylamino)pyrrolidin-1-yl]quinoxaline-5-carboxamide], the IC50 is 100 to 1000 nM.

Take `CN[C@H]1CCN(c2ccc(C(=O)Nc3cc(F)c4nc(C)cn4c3)c3nccnc23)C1` (single isomer, unassigned) [Compound 194, N-{8-fluoro-2-methylimidazo[1,2-a]pyridin-6-yl}-8-[3-(methylamino)pyrrolidin-1-yl]quinoxaline-5-carboxamide]: the IC50 is under 100 nM.

Consider `Cc1cn2nc(NC(=O)c3ccc(N4CCNCC4)c4ccnnc34)cc(C)c2n1` [Compound 100], for which the IC50 lay within 100 to 1000 nM.

Turning to `Cc1cn2cc(NC(=O)c3ccc(N4CCNC5(CC5)C4)c4ccnnc34)cc(F)c2n1` [Compound 105], the half-inhibitory concentration (IC50) fell in the range of 100 to 1000 nM.

As for `Cc1cn2cc(NC(=O)c3ccc(N4C[C@H]5CC[C@@H](C4)N5)c4ccnnc34)cc(F)c2n1` [Compound 108], the IC50 fell in the range of 100 to 1000 nM.

`Cc1cn2nc(NC(=O)c3ccc(N4CCNCC4)c4ccnnc34)cc2c(C)n1` [Compound 123]: the IC50 is 1000 to 10000 nM.

Take `Cc1cn2cc(NC(=O)c3ccc(N4CCNCC4)c4ccnnc34)cc(C)c2n1` [Compound 125]: the IC50 was in the range of 100 to 1000 nM.

Regarding `O=C(Nc1cn[nH]c1)c1ccc(N2CCNCC2)c2ccnnc12` [Compound 126], the IC50 is over 10000 nM.

On to `Cc1cn2cc(NC(=O)c3ccc(N4CCN(C)CC4)c4ccnnc34)cc(F)c2n1` [Compound 127], for which the IC50 was in the range of 100 to 1000 nM.

In the case of `Cc1cn2cc(NC(=O)c3ccc(N4CCNC(C)C4)c4ccnnc34)cc(F)c2n1` (stereo not shown) [Compound 128], the IC50 is under 100 nM.

Turning to `CCC1CN(c2ccc(C(=O)Nc3cc(F)c4nc(C)cn4c3)c3nnccc23)CCN1` (stereo not shown) [Compound 130], the IC50 was under 100 nM.

As for `Cc1cn2cc(NC(=O)c3ccc(N4CC5(CNC5)C4)c4ccnnc34)cc(F)c2n1` [Compound 131], the IC50 lay in the range of 100 to 1000 nM.

Regarding `Cc1cn2cc(NC(=O)c3ccc(N4CCC(N5CCCC5)C4)c4ccnnc34)cc(F)c2n1` (stereo not shown) [Compound 133], the IC50 lay within 1000 to 10000 nM.

On to `Cc1cn2cc(NC(=O)c3ccc(N4CCC(N(C)C)C4)c4ccnnc34)cc(F)c2n1` (stereo not shown) [Compound 134], for which the IC50 was in the range of 100 to 1000 nM.

As to `Cc1cn2cc(NC(=O)c3ccc(N4CCC(N(C)C)CC4)c4ccnnc34)cc(F)c2n1` [Compound 137], the IC50 is under 100 nM.

Consider `Cc1cn2cc(NC(=O)c3ccc(N4CCC(NC(C)(C)C)CC4)c4ccnnc34)cc(F)c2n1` [Compound 138], for which the IC50 was in the range of 100 to 1000 nM.

For the molecule `Cc1cn2cc(NC(=O)c3ccc(C4CCN(C)CC4)c4ccnnc34)cc(F)c2n1` [Compound 140], the concentration for half-maximal inhibition (IC50) fell in the range of 100 to 1000 nM.

As for `CCN1CCC(c2ccc(C(=O)Nc3cc(F)c4nc(C)cn4c3)c3nnccc23)CC1` [Compound 141], the IC50 fell in the range of 100 to 1000 nM.

As for `Cc1cn2cc(NC(=O)c3ccc(N4CCN[C@H](C)C4)c4ccnnc34)cc(F)c2n1` [Compound 146], the IC50 is under 100 nM.

`Cc1cn2cc(NC(=O)c3ccc(N4CCN(C)[C@H](C)C4)c4ccnnc34)cc(F)c2n1` [Compound 149]: the IC50 was under 100 nM.

In the case of `Cc1cn2cc(NC(=O)c3ccc(N4CCN(C)[C@@H](C)C4)c4ccnnc34)cc(F)c2n1` [Compound 150], the concentration for half-maximal inhibition (IC50) fell in the range of 100 to 1000 nM.

Regarding `CC[C@@H]1CN(c2ccc(C(=O)Nc3cc(F)c4nc(C)cn4c3)c3nnccc23)CCN1` [Compound 151], the 50% inhibitory concentration (IC50) was under 100 nM.

For `CC[C@H]1CN(c2ccc(C(=O)Nc3cc(F)c4nc(C)cn4c3)c3nnccc23)CCN1` [Compound 152], the IC50 fell in the range of 100 to 1000 nM.

Consider `Cc1cn2cc(NC(=O)c3ccc(N4CCN5CCC[C@@H]5C4)c4ccnnc34)cc(F)c2n1` [Compound 153], for which the IC50 was under 100 nM.

For `Cc1cn2cc(NC(=O)c3ccc(N4CCN5CCC[C@H]5C4)c4ccnnc34)cc(F)c2n1` [Compound 154], the IC50 was in the range of 100 to 1000 nM.

On to `Cc1cn2cc(NC(=O)c3ccc(N4C[C@H]5C[C@@H]4C5N(C)C)c4ccnnc34)cc(F)c2n1` (stereo partly shown) [Compound 155], for which the IC50 was 1000 to 10000 nM.

Regarding `Cc1cn2cc(NC(=O)c3ccc(N(C)[C@@H]4C[C@H]5CC[C@@H](C4)N5)c4ccnnc34)cc(F)c2n1` [Compound 156], the IC50 was in the range of 1000 to 10000 nM.

Turning to `Cc1cc2c(N3CCNCC3)ccc(C(=O)Nc3cc(F)c4nc(C)cn4c3)c2nn1` [Compound 159], the IC50 is under 100 nM.

As to `Cc1cn2cc(NC(=O)c3ccc(N4C[C@@H](C)N[C@@H](C)C4)c4ccnnc34)cc(F)c2n1` [Compound 161, 5-(3,5-dimethylpiperazin-1-yl)-N-{8-fluoro-2-methylimidazo[1,2-a]pyridin-6-yl}cinnoline-8-carboxamide 2,2,2-trifluoroacetate], the IC50 is under 100 nM.

For `Cc1ccc2c(N3CCNCC3)ccc(C(=O)Nc3cc(F)c4nc(C)cn4c3)c2n1` [Compound 162, N-{8-fluoro-2-methylimidazo[1,2-a]pyridin-6-yl}-2-methyl-5-(piperazin-1-yl)quinoline-8-carboxam-ide, trifluoroacetic acid], the IC50 is under 100 nM.

`CC(=O)c1cc(NC(=O)c2ccc(N3CCNCC3)c3ccnnc23)cn2cc(C)nc12` [Compound 163, N-{8-acetyl-2-methylimidazo[1,2-a]pyridin-6-yl}-5-(piperazin-1-yl)cinnoline-8-carboxamide]: the IC50 fell in the range of 1000 to 10000 nM.

As to `Cc1cn2cc(NC(=O)c3ccc(N4CCNCC4)c4ccnnc34)nc(C)c2n1` [Compound 164, N-{2,8-dimethylimidazo[1,2-a]pyrazin-6-yl}-5-(piperazin-1-yl)cinnoline-8-carboxamide 2,2,2-trifluoroacetate], the IC50 fell in the range of 100 to 1000 nM.

As to `Cc1cn2cc(NC(=O)c3ccc(N4CCNCC4)c4cccnc34)cc(F)c2n1` [Compound 165, N-{8-fluoro-2-methylimidazo[1,2-a]pyridin-6-yl}-5-(piperazin-1-yl)quinoline-8-carboxamide], the IC50 was under 100 nM.

As to `Cc1cn2cc(NC(=O)c3ccc(N4CCNCC4)c4nnccc34)cc(F)c2n1` [Compound 166, N-(8-fluoro-2-methylimidazo[1,2-a]pyridin-6-yl)-8-(piperazin-1-yl)cinnoline-5-carboxamide 2,2,2-trifluoroacetate], the IC50 was over 10000 nM.

In the case of `Cc1cn2cc(NC(=O)c3ccc(N4CCNCC4)c4ccnnc34)cc(C#N)c2n1` [Compound 167, N-{8-cyano-2-methylimidazo[1,2-a]pyridin-6-yl}-5-(piperazin-1-yl)cinnoline-8-carboxamide trifluoroacetic acid salt], the IC50 lay in the range of 100 to 1000 nM.

On to `CCc1cc(NC(=O)c2ccc(N3CCNCC3)c3ccnnc23)nn2cc(C)nc12` [Compound 168, N-{8-ethyl-2-methylimidazo[1,2-b]pyridazin-6-yl}-5-(piperazin-1-yl)cinnoline-8-carboxamide trifluoroacetic acid salt], for which the half-inhibitory concentration (IC50) is 1000 to 10000 nM.

Consider `COc1ccc2c(N3CCNCC3)ccc(C(=O)Nc3cc(F)c4nc(C)cn4c3)c2n1` [Compound 169, N-{8-fluoro-2-methylimidazo[1,2-a]pyridin-6-yl}-2-methoxy-5-(piperazin-1-yl)quinoline-8-carboxamide], for which the IC50 is under 100 nM.

As for `Cc1cn2cc(NC(=O)c3ccc(N4C[C@@H](C)N[C@@H](C)C4)c4ccnnc34)nc(C)c2n1` [Compound 172, N-{2,8-dimethylimidazo[1,2-a]pyrazin-6-yl}-5-[(3R,5S)-3,5-dimethylpiperazin-1-yl]cinnoline-8-carboxamide], the IC50 was in the range of 100 to 1000 nM.

As to `COCCOc1ccc2c(N3CCNCC3)ccc(C(=O)Nc3cc(F)c4nc(C)cn4c3)c2n1` [Compound 173, N-{8-fluoro-2-methylimidazo[1,2-a]pyridin-6-yl}-2-(2-methoxyethoxy)-5-(piperazin-1-yl)quinoline-8-carboxamide], the IC50 was under 100 nM.

On to `COc1cc(NC(=O)c2ccc(N3CCNCC3)c3ccnnc23)cn2cc(C)nc12` [Compound 176, N-{8-methoxy-2-methylimidazo[1,2-a]pyridin-6-yl}-5-(piperazin-1-yl)cinnoline-8-carboxamide trifluoroacetate], for which the IC50 was 100 to 1000 nM.

Consider `Cc1cn2cc(NC(=O)c3ccc(N4CCNCC4)c4ccnnc34)[nH]c(=O)c2n1` [Compound 177, N-{2-methyl-8-oxo-7H-imidazo[1,2-a]pyrazin-6-yl}-5-(piperazin-1-yl)cinnoline-8-carboxamide trifluoroacetic acid salt], for which the IC50 lay in the range of 100 to 1000 nM.

For the molecule `Cc1nc(NC(=O)c2ccc(N3CCNCC3)c3ccnnc23)cc2cn(C)nc12` [Compound 178, N-{2,7-dimethylpyrazolo[3,4-c]pyridin-5-yl}-5-(piperazin-1-yl)cinnoline-8-carboxamide], the IC50 lay in the range of 100 to 1000 nM.

Turning to `COc1nc(NC(=O)c2ccc(N3CCNCC3)c3ccnnc23)cn2cc(C)nc12` [Compound 179, N-{8-methoxy-2-methylimidazo[1,2-a]pyrazin-6-yl}-5-(piperazin-1-yl)cinnoline-8-carboxamide], the IC50 is under 100 nM.

As to `Cc1c(O)c(NC(=O)c2ccc(N3CCNCC3)c3ccnnc23)cc2cn(C)nc12` [Compound 181, N-(6-hydroxy-2,7-dimethylindazol-5-yl)-5-(piperazin-1-yl)cinnoline-8-carboxamide], the IC50 fell in the range of 100 to 1000 nM.

In the case of `Cc1cn2cc(NC(=O)c3ccc(N4CCNCC4)c4ccnnc34)cc(C(C)O)c2n1` (stereo not shown) [Compound 182, N-[8-(1-hydroxyethyl)-2-methylimidazo[1,2-a]pyridin-6-yl]-5-(piperazin-1-yl)cinnoline-8-carboxamide trifluoroacetate], the IC50 is over 10000 nM.

Turning to `COc1cc2c(N3CCNCC3)ccc(C(=O)Nc3cc(F)c4nc(C)cn4c3)c2nn1` [Compound 183, N-{8-fluoro-2-methylimidazo[1,2-a]pyridin-6-yl}-3-methoxy-5-(piperazin-1-yl)cinnoline-8-carboxamide], the IC50 is under 100 nM.

One may read the IC50 as the concentration at which inhibition is half-maximal.
